Measurements from patent US6194465A, “Benzamide therapeutics for the treatment of inflammatory bowel disease” (priority 1999, dated 2001).
“Also recorded” adds a separate entry of the source.

Legend:
[1] = PK parameter estimates, 30 mg/kg po (Table 1); type: in vivo, rats; conditions: additional series of bioavailability experiments
Method: The bioavailability of compound N is depicted in FIG. 10 as well. |(NRTs Dosed 30 mg/kg po in 1% Methyl Cellulose, n = 3 rats/NRT)

[2] = test system: Myeloperoxidase (MPO) activity; assay: MPO activity of colon tissue in TNBS model (IV dosing); type: in vivo, Male Sprague-Dawley rats
Method: Male Sprague-Dawley rats (200-250 g) were housed in standard cages (2 per cage) and fed rat chow and tap water ad libitum. After an overnight fast, rats were brought into the laboratory and randomized into treatment groups. Colitis was induced by intrarectal administration of 0.5 ml of TNBS solution (50 mg/kg in 50% ethanol) using a 1 ml syringe attached to a 5 cm polyethylene catheter. Control animals received saline (0.9%) or a 1 % methyl cellulose suspension at identical time points.
Myeloperoxidase ("MPO") activity is measured as an index of the intensity of the inflammatory response. In order to determine the MPO activity, a blind study of 300 mg samples of colon tissue were analyzed. This assay uses the spectrophotometric method of Castro et al.
For PO (oral) dosing, Compound A was administered by oral gavage 30 mg/kg as a 1% carboxy methyl cellulose ("CMC") suspension 1 hour prior to the administration of TNBS. Control rats were given CMC only. For IV (intravenous) dosing, Compound A was administered 30 mg/kg by tail vein injection in a 75% PEG/25 % water solution 1 hour prior to administration of TNBS. Control rats were given an injection of 75% PEG/25 % water only. Six rats were dosed for each route of administration.
MPO activity measurements were performed only for samples from the IV administration.

[3] = test system: TNBS-induced colonic tissue damage; assay: TNBS model, dosing after TNBS treatment (morphology, MPO, wet weight); type: in vivo, rats
Method: As a follow-on set of experiments we investigated the effects of multiple doses of Compound A administered after TNBS treatment.
Experimental conditions were similar to those described above except that rats were given either Compound A (30 mg/kg PO) or vehicle, administered 4, 8 and 24 hours after TNBS treatment for at total of 3 doses.
In another series of experiments to investigate the duration of action of Compound A was designed to advance previous observations and determine whether a single dose of 90 mg/kg po Compound A given either 4, 8, or 24 hrs after the TNBS enema would reduce the colonic damage.
Experimental conditions were similar to those described above except that rats were given a single large dose of Compound A (90 mg/kg PO) or vehicle either 4, 8 or 24 hours after TNBS treatment.

[4] = test system: adjuvant induced arthritis; assay: Rat adjuvant induced arthritis model of chronic inflammation; type: in vivo; conditions: Compound A 100 mg/kg po or dexamethasone 0.1 mg/kg, daily 7 days, vs adjuvant
Method: Confirmation of the anti-inflammatory activity of Compound A was sought in another related biological test-the rat adjuvant induced arthritis model of chronic inflammation. This model was selected because almost all of the anti-IBD agents also show efficacy in standard arthritis models. In this model Compound A was tested at 100 mg/kg, po in a 1 % methyl cellulose suspension. On day 0 all animals received an injection of either Mycobacterium butyricum (100μL, 20 mg/mL in mineral oil) or mineral oil in the base of the tail. 14 days after this injection, rat paws were measured and all the rats were randomized into 3 treatment groups of 8. A control adjuvant group (group without further treatment), a group to be treated with dexamethasone (steroid reference) and a group to treated with Compound A. Rats received Compound A 100 mg/kg, po, or dexamethasone 0.1 mg/kg, op, daily until day 21 (7 days dosing). On day 21 rats were sacrificed. Paw measurements were taken after 5 and 7 days treatment.

[5] = test system: human brain cell aggregates; assay: TNF-α induced apoptosis in human brain cell aggregates; type: cell-based; conditions: compound 1 hour prior to TNF-α, 48 h, read-out: lowest concentration shown to protect against TNF-α induced apoptosis
Method: This test is used to evaluate the potential of Compound A to prevent TNF-α induced apoptosis.
Compound A was evaluated in an in vitro model of TNF-α induced toxicity (see Pulliam et al. J. Neurosci. Res. 21:521-530 (1998)). In this model, human brain cell aggregates from fetal tissue were treated with TNF-α which caused an apoptotic cell death. Brain cell aggregates prepared from 1 brain were incubated for 10-12 days before experimentation. Aggregates were weighed out (100 mg/flask) and aliquoted into 10 mL flasks. TNF-α was used at a concentration of 1 ng. Compound A was added 1 hour prior to the TNF-α. Experiments included untreated brain aggregates, TNF-α-treated brain aggregates, TNF-α-+test compound treated aggregates and test compound treated aggregates. After TNF-α was added, aggregates were incubated for an additional 48 h. After this time, brain aggregates were centrifuged for 5 min at 500 rpm. The supernatant was removed and the pellet was lysed for determination of programmed cell death. (Boeringer Mannheim Cell Death Kit ELISA).

bcl-2 = assay: TNF-α induced reduction in bcl-2 (ELISA); type: cell-based; conditions: Compound A 100 μM (printed 100 EM); TNF-α 0.3 or 3.0
Method: Cytokine mediated apoptosis or programmed cell death is believed to be involved in a number of diseases including IBD. Reductions in bcl-2 are a major signal in initiation of the apoptotic cascade (see Jourd'heuil et al., J. Clin Gastroenterol. 25(Suppl):S61-S72 (1997)). The purpose of this study is to investigate the effects of Compound A on bcl-2 protein levels in a cellular model of cytokine mediated apoptosis.
SK-N-MC cells (American Type Culture Collection, Rockville, Md.) were plated at 500,000 cells/plate and treated with retinoic acid ("RA") (5 μM) for 5 days. Following RA treatment, the cells were incubated with Compound A (100 μM) for 1 hour. Cells were then treated with increasing concentrations of TNF-α (0, 0.3 and 3 ng/mL) for 6 h. The cells were harvested and lysed and bcl-2 was measured in the lysate using an ELISA assay (Boehringer Manheim). Quantification of bcl-2 was based on a standard curve and results are expressed as units/mL of bcl-2 in the sample. Results represent mean ±SE for 3 separate cultures.

[6] = 30 mg/kg PO at 4, 8 and 24 hours after TNBS

## CC(=O)Nc1ccc(C(=O)NC(C)(C)C)cc1 [Compound A, N-tert-butyl-4-acetamidobenzamide]
[1]
  bioavailability (in words): excellent bioavailability
[2]; IV
  protection from TNBS insult as measured by MPO activity (in words): provided protection from the TNBS insult
[2]; IV treatment, 30 mg/kg, TNBS model
  MPO Activity: 1.77 ± 0.53 units/mg
[3]; [6]
  MPO activity, 3 doses after TNBS (in words): decrease in MPO activity
  colonic tissue damage, 3 doses after TNBS: significantly reduced
  tissue wet weight, 3 doses after TNBS (in words): reduction in tissue wet weight
[3]; 90 mg/kg po, 4, 8 or 24 hours after TNBS
  inflammatory damage, single dose after TNBS: prevents inflammatory damage; also recorded: less efficacy than the 3 dose (30 mg/kg) oral regimen
[4]
  inhibition of the inflammatory response: significant inhibition of the inflammatory response (p<0.005)
[5]
  minimal effective concentration: 0.01 µM
bcl-2
  bcl-2 reduction induced by TNF-α: prevented bcl-2 reduction
